Assay results as given in patent US20260042755A1, “GPR6 INVERSE AGONISTS” (MapLight Therapeutics, Inc., priority 2022, published 2026).
pIC50: −log10 of the molar value.

Legend:
GPR3 = biological target: T1, GPR3 (Homo sapiens, UniProt P46089); assay: GPR3 antagonist functional cAMP assay (LANCE Ultra cAMP TR-FRET, CHO cells stably expressing GPR3); type: cell-based
T1 construct: expressed in transfected cells; host or cells: CHO cells
Procedure, shortened: (§1)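 Suspended cells were plated at 10,000 per well in Krebs-Ringer bicarbonate buffer containing 0.1% BSA and 150 μM Ro 20-1724, then treated with compounds for 45 min at 37 °C. Intracellular cAMP was then quantified by TR-FRET immunoassay.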

GPR6 = biological target: T2, GPR6 (Homo sapiens, UniProt P46095); assay: GPR6 antagonist functional cAMP assay (LANCE Ultra cAMP TR-FRET, CHO cells stably expressing GPR6); type: cell-based
T2 construct: expressed in transfected cells; host or cells: CHO cells
Procedure, shortened: as §1

[1] = CHO cells stably expressing GPR3, cAMP assay (Example 24)
[2] = CHO cells stably expressing GPR6, cAMP assay (Example 24)
[3] = CHO cells stably expressing GPR3, cAMP assay
[4] = CHO cells stably expressing GPR6, cAMP assay

T2 sequence (P46095 whole entry): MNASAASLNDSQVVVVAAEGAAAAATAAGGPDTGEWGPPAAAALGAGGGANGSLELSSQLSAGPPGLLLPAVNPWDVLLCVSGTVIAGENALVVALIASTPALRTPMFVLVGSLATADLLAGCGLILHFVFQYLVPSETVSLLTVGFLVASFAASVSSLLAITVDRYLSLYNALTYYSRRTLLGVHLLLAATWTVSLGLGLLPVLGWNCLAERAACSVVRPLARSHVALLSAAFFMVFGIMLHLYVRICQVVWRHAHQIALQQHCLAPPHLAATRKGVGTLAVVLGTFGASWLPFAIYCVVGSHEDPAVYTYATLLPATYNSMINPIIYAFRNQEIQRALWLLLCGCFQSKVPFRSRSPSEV
T1 sequence (P46089 whole entry, species assumed): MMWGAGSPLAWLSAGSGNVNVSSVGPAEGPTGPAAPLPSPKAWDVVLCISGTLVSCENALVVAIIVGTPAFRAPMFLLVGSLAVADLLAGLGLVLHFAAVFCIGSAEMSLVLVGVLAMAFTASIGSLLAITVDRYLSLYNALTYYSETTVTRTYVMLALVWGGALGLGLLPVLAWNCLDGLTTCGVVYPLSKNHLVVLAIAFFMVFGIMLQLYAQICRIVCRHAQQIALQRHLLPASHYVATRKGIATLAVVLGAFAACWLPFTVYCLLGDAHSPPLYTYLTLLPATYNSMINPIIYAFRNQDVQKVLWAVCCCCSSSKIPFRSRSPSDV

SMILES	pIC50 (GPR3; [1])	pIC50 (GPR6; [2])	pIC50 (GPR3; procedure of Example 24)	pIC50 (GPR6; procedure of Example 24)	further results
CC(=O)N1CCc2nc(N3CCC(Oc4ccc(F)cc4F)CC3)c(-c3cncc(O)c3)nc2C1 [Compound 158, 1-{2-[4-(2,4-difluorophenoxy)piperidin-1-yl]-3-(5-hydroxypyridin-3-yl)-5H,6H,7H,8H-pyrido[3,4-b]pyrazin-6-yl}ethan-1-one]	4.52 to 6.00	4.52 to 6.00	–	–	–
CC(=O)N1CCc2nc(N3CCN(Cc4ccc(F)cc4F)CC3)c(-c3ccc(F)c(N)n3)nc2C1 [Compound 609, 1-[3-(6-amino-5-fluoro-2-pyridyl)-2-{4-[(2,4-difluorophenyl)methyl]-1-piperazinyl}-5,6,7,8-tetrahydro-1,4,6-triaza-6-naphthyl]-1-ethanone]	–	–	–	–	pIC50 (GPR3; [3]): 6.00 to 7.00; pIC50 (GPR6; [4]): 6.00 to 7.00
COc1cc(F)c(OC2CCN(c3nc4c(nc3-c3cnn(C)c3)CN(C(C)=O)CC4)CC2)cc1Cl [Compound 503, 1-{2-[4-(5-chloro-2-fluoro-4-methoxyphenoxy)-1-piperidyl]-3-(1-methyl-4-pyrazolyl)-5,6,7,8-tetrahydro-1,4,6-triaza-6-naphthyl}-1-ethanone]	–	–	–	–	pIC50 (GPR3; [3]): 4.52 to 6.00; pIC50 (GPR6; [4]): 4.52 to 6.00
Cn1cc(-c2nc3cc(C(C)(O)C(C)(C)O)ncc3nc2N2CCN(Cc3ccc(F)cc3F)CC2)cn1 (centres unmarked) [Compound 604, 2-(3-{4-[(2,4-difluorophenyl)methyl]-1-piperazinyl}-2-(1-methyl-4-pyrazolyl)-1,4,6-triaza-7-naphthyl)-3-methyl-2,3-butanediol]	–	–	–	–	pIC50 (GPR3; [3]): 4.52 to 6.00; pIC50 (GPR6; [4]): 6.00 to 7.00
Nc1cc2nc(N3CCC(Oc4ccc(F)cc4F)CC3)c(-c3cnn(C(F)F)c3)nc2cn1 [Compound 460, 3-[1-(difluoromethyl)-1H-pyrazol-4-yl]-2-[4-(2,4-difluorophenoxy)piperidin-1-yl]pyrido[3,4-b]pyrazin-7-amine]	4.52 to 6.00	6.00 to 7.00	–	–	–
Cn1cc(-c2nc3cnc(Cl)cc3nc2N2CCN(Cc3ccc(F)cc3F)CC2)cn1 [Compound 193, 1-[7-chloro-3-(1-methyl-1H-pyrazol-4-yl)pyrido[3,4-b]pyrazin-2-yl]-4-[(2,4-difluorophenyl)methyl]piperazine]	4.52 to 6.00	4.52 to 6.00	–	–	–
CC(=O)N1CCc2nc(N3CCC(Oc4ccc(F)cc4F)CC3)c(-c3cc[nH]c(=O)c3)nc2C1 [Compound 66, 4-{6-acetyl-2-[4-(2,4-difluorophenoxy)piperidin-1-yl]-5H,6H,7H,8H-pyrido[3,4-b]pyrazin-3-yl}-1,2-dihydropyridin-2-one]	4.52 to 6.00	4.52 to 6.00	–	–	–
Cn1cc(-c2nc3cc([C@@](C)(O)C(C)(C)O)ncc3nc2N2CCC(Oc3ccc(F)cc3F)CC2)cn1 (single isomer, unassigned) [Compound 739]	–	–	4.52 to 6.00	6.00 to 7.00	–
CC(=O)N1CCc2nc(N3CCC(Oc4ccc(F)cc4F)CC3)c(-c3cnn4c3CN(C(C)=O)CC4)nc2C1 [Compound 107, 1-(3-{6-acetyl-2-[4-(2,4-difluorophenoxy)piperidin-1-yl]-5H,6H,7H,8H-pyrido[3,4-b]pyrazin-3-yl}-4H,5H,6H,7H-pyrazolo[1,5-a]pyrazin-5-yl)ethan-1-one]	4.52 to 6.00	4.52 to 6.00	–	–	–
CC(C)(O)C(O)c1cc2nc(-c3cnn(CF)c3)c(N3CCC(=Cc4ccc(F)cc4F)CC3)nc2cn1 (single isomer, unassigned) [Compound 771]	–	–	6.00 to 7.00	6.00 to 7.00	–
CC(C)(O)[C@](C)(O)c1cc2nc(N3CCN(Cc4ccccc4F)CC3)c(-c3cnn(C(F)F)c3)nc2cn1 (single isomer, unassigned) [Compound 669]	–	–	4.52 to 6.00	6.00 to 7.00	–
Cn1cc(-c2nc3cnc([C@](C)(O)C(C)(C)O)cc3nc2N2CCC(Oc3ccc(F)cc3F)CC2)cn1 (single isomer, unassigned) [Compound 673]	–	–	4.52 to 6.00	6.00 to 7.00	–
N#CCN1CCc2nc(N3CCC(Oc4ccc(F)cc4F)CC3)c(-c3cnn(C4CCCCO4)c3)nc2C1 (centres unmarked) [Compound 118, 2-{2-[4-(2,4-difluorophenoxy)piperidin-1-yl]-3-[1-(oxan-2-yl)-1H-pyrazol-4-yl]-5H,6H,7H,8H-pyrido[3,4-b]pyrazin-6-yl}acetonitrile]	4.52 to 6.00	4.52 to 6.00	–	–	–
